In patent US20130065897A1, “COMPOUNDS, PREPARATION AND USES THEREOF” (PETER MACCALLUM CANCER INSTITUTE, priority 2009, published 2013):

Experiments:
recombinant perforin = recombinant perforin (UniProt P10820); format: cell-based; conditions: read-out: Jurkat IC50; recombinant perforin pre-incubated 30 min with compound; 51Cr-labelled Jurkat cells, 0.1% BSA, 37° C. 4 hours
Method in brief: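 Jurkat T lymphoma target cells labelled 1 h with 100 μCi ^51Cr, washed, resuspended at 1×10^5 cells/mL in RPMI with 0.1% BSA; lysis read as ^51Cr release into supernatant by gamma counting. Triplicate points; IC50 from the concentration range.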

[1] = system: KHYG-1 NK cell-mediated lysis of K562 cells; experiment: Inhibition of KHYG-1 NK cell-mediated lysis of K562 cells (51Cr release); format: cell-based; conditions: K562 target cells, Effector:Target 2:1, 4 hours 37° C.
Method in brief: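 KHYG-1 NK effector cells in RPMI+0.1% BSA were preincubated with compounds up to 20 μM for 20 minutes at RT. ⁵¹Cr-labelled K562 targets were then added (E:T 2:1) for 4 hours at 37 °C, and ⁵¹Cr release gamma-counted as percent specific cytotoxicity, mean of triplicates ± SEM.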

KHYG-1 NK cells = experiment: Toxicity to KHYG-1 NK cells (trypan blue viability); format: cell-based; conditions: viable cells as percentage of total (% viability), 18 to 24 hours

recombinant perforin, sequence (P10820 whole entry): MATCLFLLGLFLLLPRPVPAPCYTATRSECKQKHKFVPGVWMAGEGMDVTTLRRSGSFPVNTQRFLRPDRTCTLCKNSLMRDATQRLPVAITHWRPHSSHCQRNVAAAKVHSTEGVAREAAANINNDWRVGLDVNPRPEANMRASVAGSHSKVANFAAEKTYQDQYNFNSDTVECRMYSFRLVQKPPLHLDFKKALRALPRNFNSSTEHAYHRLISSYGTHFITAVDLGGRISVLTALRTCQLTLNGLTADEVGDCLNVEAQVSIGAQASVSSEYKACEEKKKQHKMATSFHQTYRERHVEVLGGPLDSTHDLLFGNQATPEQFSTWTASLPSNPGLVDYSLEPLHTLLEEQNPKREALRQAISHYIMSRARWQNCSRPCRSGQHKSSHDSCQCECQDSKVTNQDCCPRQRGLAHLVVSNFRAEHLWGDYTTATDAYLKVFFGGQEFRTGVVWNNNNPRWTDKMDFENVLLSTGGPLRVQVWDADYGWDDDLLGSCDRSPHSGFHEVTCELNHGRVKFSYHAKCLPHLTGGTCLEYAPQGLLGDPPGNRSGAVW

| SMILES | IC50 (recombinant perforin) | inhibition at 20 µM [1] | percent viable KHYG-1 cells (trypan blue) at 20 μM (KHYG-1 NK cells) | melting point |
| --- | --- | --- | --- | --- |
| O=C1NC(=S)N/C1=C/c1cc2cc(-c3ccc4c(c3)COC4=O)ccc2o1 [Cmpd 10, (2)-5-((5-(1-Oxo-1,3-dihydroisobenzofuran-5-yl)benzofuran-2-yl)methylene)-2-thioxoimidazolidin-4-one] | 620 nM | 51% | 88% | > 300 °C |
| O=C1NC(=S)N/C1=C/c1cc2ccc(-c3ccc4c(c3)COC4=O)cc2[nH]1 [Cmpd 11, (E,Z)-5-((6-(1-Oxo-1,3-dihydroisobenzofuran-5-yl)-1H-indol-2-yl)methylene)-2-thioxoimidazolidin-4-one] | 2340 nM | 100% | 86% | > 300 °C |
| O=C1NC(=S)N/C1=C/c1cc2cc(-c3ccc4c(c3)COC4=O)ccc2[nH]1 [Cmpd 12, (E,Z)-5-((5-(1-Oxo-1,3-dihydroisobenzofuran-5-yl)-1H-indol-2-yl)methylene)-2-thioxoimidazolidin-4-one] | 720 nM | 74% | 94% | > 300 °C |
| O=C1NC(=S)N/C1=C\c1ccc2ccc(-c3ccc4c(c3)COC4=O)cc2n1 [Cmpd 13] | 1720 nM | 52% | 70% | > 310 °C |
| COc1ccc(-c2ccc(/C=C3/NC(=S)NC3=O)s2)cc1 [Cmpd 22, (E,Z)-5-((5-(4-Methoxyphenyl)thiophen-2-yl)methylene)-2-thioxoimidazolidin-4-one] | 8930 nM | 78% | 100% | 288 to 293 °C |
| O=C1NC(=S)N/C1=C/c1ccc(-c2ccc(C(=O)NCCN3CCOCC3)cc2)s1 [Cmpd 45, (E,Z)-N-(2-Morpholinoethyl)-4-(5-((5-oxo-2-thioxoimidazolidin-4-ylidene)methyl)thiophen-2-yl)benzamide] | > 20000 nM | 78% | 88% | 248 to 252 °C |
| O=C1NC(=S)N/C1=C\c1cnc(-c2ccc3c(c2)COC3=O)s1 [Cmpd 55, (E,Z)-5-((2-(1-Oxo-1,3-dihydroisobenzofuran-5-yl)thiazol-5-yl)methylene)-2-thioxoimidazolidin-4-one] | 1720 nM | 53% | 95% | > 300 °C |
| CN(C)CCCN1Cc2cc(-c3ccc(/C=C4/NC(=S)NC4=O)s3)ccc2C1=O [Cmpd 74, (E)-2-(3-(Dimethylamino)propyl)-5-(5-((5-oxo-2-thioxoimidazolidin-4-ylidene)methyl)thiophen-2-yl)isoindolin-1-one] | > 20000 nM | 53% | 82% | 212 °C (dec.) |
| O=C1NC(=S)N/C1=C/c1cc2ccc(-c3ccc4c(c3)COC4=O)cc2s1 [Cmpd 80, (E,Z)-5-((6-(1-Oxo-1,3-dihydroisobenzofuran-5-yl)benzo[b]thiophen-2-yl)methylene)-2-thioxoimidazolidin-4-one] | 360 nM | 55% | 75% | > 310 °C |
